Reference: patent US10752612B2, “PLK4 inhibitors” (LUDWIG INSTITUTE FOR CANCER RESEARCH LTD, priority 2015, dated 2020)

Each compound was assayed against T1, human Plk4 kinase domain (aa 2-275) (Homo sapiens, UniProt O00444) (assay: Plk4 kinase assay (ADP-Glo)). Settings: Table 1.
T1 construct: purified 6×His-tagged human Plk4 kinase domain (aa 2-275); 6xHis; made in house; host or cells: E. coli
T1 sequence (O00444 2-275): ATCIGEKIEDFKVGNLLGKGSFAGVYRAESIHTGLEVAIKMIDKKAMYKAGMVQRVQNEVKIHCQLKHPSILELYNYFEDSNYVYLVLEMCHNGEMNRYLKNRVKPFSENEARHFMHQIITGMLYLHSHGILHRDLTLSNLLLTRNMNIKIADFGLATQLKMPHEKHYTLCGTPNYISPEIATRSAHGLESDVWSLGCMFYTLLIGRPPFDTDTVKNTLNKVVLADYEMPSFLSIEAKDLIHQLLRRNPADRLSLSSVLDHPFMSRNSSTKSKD
Format: biochemical
Protocol: Kinase assays. […] The Plk4 concentration in the final reaction was 2.5-10 nM with a final pH of 8.0. […] Reactions were allowed to proceed for 4-16 hours at 25° C. Detection was performed using ADP-Glo reagent (Promega), following manufacturer's instructions. Luminescence was measured on an Infinite M1000 plate reader (Tecan). Data were fit using Prism (GraphPad) and Kis were calculated from IC50 data using the Cheng and Prusoff equation (37) or the Copeland formalism for tight-binding inhibitors (38).

Structure (SMILES)	IC50
Cc1cc(Nc2nc(Sc3ccc(NC(=O)C4CCCC4)cc3)nc(N3CCCCC3)c2C)n[nH]1	< 1000 nM
COCC(=O)N1CCN(c2nc(Sc3ccc(NC(=O)C4CC4)cc3)nc(Nc3cc(C)[nH]n3)c2OC)CC1	< 1000 nM
CCN(C)c1nc(Sc2ccc(NC(=O)C3CCCC3)cc2)nc(Nc2cc(C)[nH]n2)c1OC	100 to 1000 nM
COc1c(Nc2cc(C)[nH]n2)nc(Sc2ccc(S(=O)(=O)Cc3ccccc3NC(C)=O)cc2)nc1N1CCN(CCN(C)C)CC1	< 1000 nM
CC(=O)N1CCN(c2nc(Sc3ccc(NC(=O)C4CC4)cc3)nc(Nc3cc(C)[nH]n3)c2C)CC1	< 1000 nM
CNCC(=O)N1CCN(c2nc(Sc3ccc(NC(C)=O)cc3)nc(Nc3cc(C)[nH]n3)c2C)CC1	< 1000 nM
CCOc1c(Nc2cc(C)[nH]n2)nc(Sc2ccc(NC(=O)C3CCCC3)cc2)nc1N1CCN(CCN(C)C)CC1	100 to 1000 nM
CSc1nc(Nc2cc(C)[nH]n2)c(C)c(N2CCC(O)CC2)n1	< 1000 nM
COc1c(Nc2cc(C)[nH]n2)nc(Sc2ccc(S(=O)(=O)Cc3cccc(Br)c3F)cc2F)nc1N1CCOCC1	< 1000 nM
CCS(=O)(=O)c1ccc(Sc2nc(Nc3cc(C)[nH]n3)c(OC)c(N3CCN(CCN(C)C)CC3)n2)c(F)c1	< 1000 nM
Cc1cc(Nc2nc(Sc3ccc(NC(=O)C4CCCC4)cc3)nc3c2C(C)CC3)n[nH]1 (centres unmarked)	< 1000 nM
COc1c(Nc2cc(C)[nH]n2)nc(Sc2ccc(NC(C)=O)cc2)nc1N1CCN(CC(=O)N(C)C)CC1	< 1000 nM
CNC(=O)Nc1ccc(Sc2nc(Nc3cc(C)[nH]n3)c(C)c(N3CCCCC3)n2)cc1	< 1000 nM
COCC(=O)N1CCN(c2nc(SC)nc(Nc3cc(C)[nH]n3)c2C)CC1	< 1000 nM
COc1c(Nc2cc(C)[nH]n2)nc(Sc2ccc(S(=O)(=O)C(C)(C)c3c(F)c(F)cc(F)c3F)cc2F)nc1N1CCC(CC(=O)N(C)C)CC1	< 1000 nM
COc1c(Nc2cc(C)[nH]n2)nc(Sc2ccc(S(=O)(=O)Cc3ccccc3)cc2)nc1N1CCN(C2CCN(Cc3ccccc3)CC2)CC1	< 1000 nM
Cc1ccc(Sc2nc(Nc3cc(C)[nH]n3)c(C)c(N(C)C(C)C)n2)cc1	< 1000 nM
COc1c(Nc2cc(C)[nH]n2)nc(Sc2ccc(S(=O)(=O)Cc3cccc([N+](=O)[O-])c3Cl)cc2)nc1N1CCN(CCN(C)C)CC1	< 1000 nM
COc1c(Nc2cc(C)[nH]n2)nc(Sc2ccc(S(=O)(=O)Cc3cccc(C#N)c3F)cc2F)nc1N1CCOCC1	< 1000 nM
COc1c(Nc2cc(C)[nH]n2)nc(Sc2ccc(S(=O)(=O)Cc3cccc(F)c3F)cc2F)nc1N1CCCCC1	< 1000 nM
CCOc1c(Nc2cc(C)[nH]n2)nc(Sc2ccc(NC(=O)C3CCCC3)cc2)nc1N(C)C	100 to 1000 nM
COc1c(Nc2cc(C)[nH]n2)nc(Sc2ccc(NC(C)=O)cc2)nc1N1CCN(C(C)C)CC1	< 1000 nM
COc1c(Nc2cc(C)[nH]n2)nc(Sc2ccc(NC(C)=O)cc2)nc1NC1CCN(C)CC1	< 1000 nM
CSc1c(Nc2cc(C)[nH]n2)nc(Sc2ccc(NC(=O)C3CC3)cc2)nc1N1CCN(C)CC1	100 to 1000 nM
COCC(=O)N1CCN(c2nc(Sc3ccc(C)cc3)nc(Nc3cc(C)[nH]n3)c2C)CC1	< 1000 nM

Structure (SMILES)	IC50
COC(=O)CN1CCN(c2nc(Sc3ccc(NC(C)=O)cc3)nc(Nc3cc(C)[nH]n3)c2OC)CC1	< 1000 nM
COc1c(Nc2cc(C)[nH]n2)nc(Sc2ccc(S(=O)(=O)C(C)(C)c3cccc(Cl)c3F)cc2F)nc1N1CCOCC1	< 1000 nM
CCOc1c(Nc2cc(C)[nH]n2)nc(Sc2ccc(NC(=O)C3CC3)cc2)nc1N1CCN(C(=O)COC)CC1	100 to 1000 nM
CCOc1c(Nc2cc(C)[nH]n2)nc(Sc2ccc(NC(C)=O)cc2)nc1N1CCC(O)CC1	< 1000 nM
COc1c(Nc2cc(C)[nH]n2)nc(Sc2ccc(NC(C)=O)cc2)nc1N1CCOC[C@@H]1C	< 1000 nM
COc1c(Nc2cc(C)[nH]n2)nc(Sc2ccc(S(=O)(=O)Cc3ccccc3F)cc2)nc1N1CCN(CCN(C)C)CC1	< 1000 nM
COc1c(Nc2cc(C)[nH]n2)nc(Sc2ccc(NC(=O)C3CC3)cc2)nc1N1CCN(C(=O)CN(C)C)CC1	< 1000 nM
CNC(=O)Nc1ccc(Sc2nc(Nc3cc(C)[nH]n3)c(C)c(N3CCC(O)CC3)n2)cc1	< 1000 nM
COc1c(Nc2cc(C)[nH]n2)nc(Sc2ccc(NC(C)=O)cc2)nc1N1CC2CCC(C1)N2CCN1CCCCCCC1	< 1000 nM
COc1c(Nc2cc(C)[nH]n2)nc(Sc2ccc(S(=O)(=O)C(C)C)cc2)nc1N1CCN(CCN(C)C)CC1	< 1000 nM
COc1c(Nc2cc(C)[nH]n2)nc(Sc2ccc(S(=O)(=O)C(C)(C)c3c(F)c(F)cc(F)c3F)cc2F)nc1N1CCC(N)CC1	< 1000 nM
CCOc1c(Nc2cc(C)[nH]n2)nc(Sc2ccc(NC(=O)C3CC3)cc2)nc1N1CCN(CCN(C)C)CC1	100 to 1000 nM
COc1c(Nc2cc(CC(=O)Nc3cccc(F)c3)[nH]n2)nc(SC)nc1N1CCN(CCN(C)C)CC1	> 1000 nM
CC(=O)Nc1ccc(Sc2nc(Nc3cc(C)[nH]n3)c(C)c(N3CCCCC3C)n2)cc1 (centres unmarked)	< 1000 nM
COc1c(Nc2cc(C)[nH]n2)nc(Sc2ccc(NC(C)=O)cc2)nc1N1CCN(CCN2CCCCC2)CC1	< 1000 nM
CCOc1c(Nc2cc(C)[nH]n2)nc(Sc2ccc(S(=O)(=O)Cc3ccccc3)cc2)nc1N1CCNCC1	> 1000 nM
COc1c(Nc2cc(C)[nH]n2)nc(Sc2ccc(S(=O)(=O)C(F)c3cccc([N+](=O)[O-])c3F)cc2F)nc1N1CCOC[C@@H]1CO (some centres unmarked)	< 1000 nM
Cc1cc(Nc2nc(Sc3ccc(NC(=O)C4CC4)cc3)nc(N(C)C(C)C)c2C)n[nH]1	< 1000 nM
CC(=O)Nc1ccc(Sc2nc(Nc3cc(C)[nH]n3)c(C)c(N3CCCC3)n2)cc1	< 1000 nM
COc1c(Nc2cc(C)[nH]n2)nc(Sc2ccc(S(=O)(=O)Cc3cccc([N+](=O)[O-])c3F)cc2F)nc1N1CCC(CC(N)=O)CC1	< 1000 nM
COc1c(Nc2cc(C)[nH]n2)nc(Sc2ccc(S(=O)(=O)Cc3cccc([N+](=O)[O-])c3)cc2F)nc1N1CCOC[C@H]1C	< 1000 nM
COc1c(Nc2cc(C)[nH]n2)nc(Sc2ccc(S(=O)(=O)Cc3ccccc3)cc2)nc1N1CCC(CCC23CC4CCC(C2)N43)CC1 (centres unmarked)	< 1000 nM
COc1c(Nc2cc(C)[nH]n2)nc(Sc2ccc(NC(C)=O)cc2)nc1N1CCC(O)CC1	< 1000 nM
Cc1cc(Nc2nc(Sc3ccc(NC(=O)C4CC4)cc3)nc(N3CCC(O)CC3)c2C)n[nH]1	< 1000 nM
CCOc1c(Nc2cc(C)[nH]n2)nc(Sc2ccc(NC(=O)C3CCCC3)cc2)nc1N1CCN(C2CCNCC2)CC1	100 to 1000 nM

Structure (SMILES)	IC50
COc1c(Nc2cc(C)[nH]n2)nc(Sc2ccc(S(=O)(=O)Cc3cccc([N+](=O)[O-])c3)cc2)nc1N1CCOC[C@@H]1CO	< 1000 nM
COc1c(Nc2cc(C)[nH]n2)nc(Sc2ccc(S(C)(=O)=O)cc2)nc1N1CCN(CCN(C)C)CC1	< 1000 nM
COc1c(Nc2cc(C)[nH]n2)nc(Sc2ccc(S(C)(=O)=O)cc2F)nc1N1CCN(CCN(C)C)CC1	< 1000 nM
COc1c(Nc2cc(C)[nH]n2)nc(Sc2ccc(C(=O)Nc3cccc([N+](=O)[O-])c3F)cc2F)nc1N1CCOCC1	< 1000 nM
CCOc1c(Nc2cc(C)[nH]n2)nc(Sc2ccc(S(=O)(=O)CC)cc2)nc1N1CCNCC1	< 1000 nM
CCOc1c(Nc2cc(C)[nH]n2)nc(Sc2ccc(NC(=O)C3CC3)cc2)nc1N(C)CC [drawing 124]	< 1000 nM
CC(=O)Nc1ccc(Sc2nc(Nc3cc(C)[nH]n3)c(C)c(N(C)C)n2)cc1	< 1000 nM
COc1c(Nc2cc(C)[nH]n2)nc(Sc2ccc(S(=O)(=O)C(C)(C)c3cccc(Cl)c3F)cc2F)nc1N1CCC(CCN(C)C)CC1	< 1000 nM
COc1c(Nc2cc(C)[nH]n2)nc(Sc2ccc(S(=O)(=O)Cc3ccccc3C(F)(F)F)cc2)nc1N1CCN(CCN(C)C)CC1	< 1000 nM
COc1c(Nc2cc(C)[nH]n2)nc(Sc2ccc(S(=O)(=O)Cc3cccc(C(C)=O)c3)cc2)nc1N1CCN(CCN(C)C)CC1	< 1000 nM
CNC(=O)Nc1ccc(Sc2nc(Nc3cc(C)[nH]n3)c(OC)c(N3CCN(CCN(C)C)CC3)n2)cc1	< 1000 nM
COc1c(Nc2cc(C)[nH]n2)nc(Sc2ccc(NC(C)=O)cc2)nc1C1=CCNCC1	< 1000 nM
COc1c(Nc2cc(C)[nH]n2)nc(Sc2ccc(S(=O)(=O)Cc3cccc([N+](=O)[O-])c3F)cc2F)nc1N1CCCCC1 [drawing 379]	< 1000 nM
COc1c(Nc2cc(C)[nH]n2)nc(Sc2ccc(NC(C)=O)cc2)nc1C1=CCN(C)CC1	< 1000 nM
COc1c(Nc2c[nH]c(C)c2)nc(Sc2ccc(NC(C)=O)cc2)nc1N1CCC(O)C1 (centres unmarked)	< 1000 nM
Cc1cc(Nc2nc(Sc3ccc(NC(=O)C4CCCC4)cc3)nc(N3CCNCC3)c2C)n[nH]1	< 1000 nM
COc1c(Nc2cc(C)[nH]n2)nc(Sc2ccc(S(=O)(=O)C(C)(C)c3cccc([N+](=O)[O-])c3F)cc2F)nc1N1CCC(NC(C)=O)CC1	< 1000 nM
CCOc1c(Nc2cc(C)[nH]n2)nc(Sc2ccc(NC(=O)C3CC3)cc2)nc1N(C)CCOC	100 to 1000 nM
COc1c(Nc2cc(C)[nH]n2)nc(Sc2ccc(S(=O)(=O)Cc3ccccc3)cc2)nc1N1CCN(CCN2CCN(C)CC2)CC1	< 1000 nM
COc1c(Nc2cc(C)[nH]n2)nc(Sc2ccc(S(=O)(=O)Cc3c(F)c(F)cc(F)c3F)cc2F)nc1N1CCOCC1	< 1000 nM
CCN(CC)c1nc(Sc2ccc(S(=O)(=O)CC)cc2)nc(Nc2cc(C)[nH]n2)c1OC	< 1000 nM
CCOc1c(Nc2cc(C)[nH]n2)nc(Sc2ccc(NC(=O)C3CCCC3)cc2)nc1N1CCNCC1	100 to 1000 nM
COc1c(Nc2cc(C)[nH]n2)nc(Sc2ccc(NC(C)=O)cc2)nc1N1CCC(F)(F)CC1	< 1000 nM
Cc1cc(Nc2nc(Sc3ccccc3)nc(N3CCCCC3)c2C)n[nH]1	< 1000 nM
